Laboratory results published in US5663182A, “Antipsychotic method” (priority 1996, dated 1997).
Counter-ions that a name gives are not always drawn.

Tests used:
Rats = test: Conditioned avoidance behavior in rats; assay type: in vivo, rat; conditions: screening dose 3.0 mg/kg s.c. 30 min before session
Text: In a conditioned avoidance test, animals learn to respond during a conditioned stimulus in order to avoid mild shock presentation. A response during the conditioned stimulus is termed an avoidance respone, a response during shock is termed an escape response; a response failure is when the animal fails to respond during either the conditioned stimlus or the shock presentation and is indicative of motor impairment. […] Antipsychotic drugs decrease the percentage of avoidance responses without interfering with the ability of the animal to respond since the animals do emit escape responses. The percentage of response failures is considered a measure of motor impairment.
Rats were required to press a response lever in an experimental chamber in order to avoid or escape foot-shock. Each experimental session consisted of 50 trials. During each trial, the chamber was illuminated and a tone presented for a maximum of 10 sec. A response during the tone immediately terminated the tone and the houselight, ending the trial. In the absence of a response during the tone alone, tone+foot-shock (2.0 mA) was presented for a maximum of 10 sec. A response during shock presentation immediately terminated the shock, the tone and the houselight, ending the trial.
For drug screening, a dose of 3.0 mg/kg was administered s.c. 30 min before the start of the experimental session.

muscarinic receptors = test: 3H-oxotremorine-M binding assay; conditions: 3 nM 3H-oxotremorine-M, rat cerebral cortical membranes, 15 min 25° C.; read-out: Inhibition of 3H-Oxo
Procedure: Each compound was tested to determine the affinity of the compound for the muscarinic receptors using the following procedure.
For each in vitro binding, male Sprague-Dawley (Harlan Sprague-Dawley, Indianapolis, Ind.) rats weighing from about 100 to about 150 grams each were sacrificed by decapitation. The brains were quickly removed and the cerebral cortex were dissected from the brain. The cerebral cortex tissue was homogenized in 10 volumes of 0.32 M sucrose and […] about 10 minutes at about 1000 x g. The supernatant was centrifuged at about 12,000 x g for about 10 minutes and the resulting pellet was resuspended in 20 mM tris-Cl, pH 7.4. The resuspended pellet was centrifuged again for about 10 minutes at about 50,000 x g. The resulting homogenate was preincubated for about 10 minutes at about 25° C. and centrifuged again for about 10 minutes at about 50,000 x g. The pellet was resuspended at 1 gram of pellet per 3 ml of buffer and frozen at about -80° C. until used.
The aforementioned homogenates mixture was incubated for about 15 minutes at about 25° C. and then the homogenates were filtered through glass filters (Whatman, GF/C) with vacuum. The filters were washed 3 times with about 2 ml of cold tris-Cl buffer, and placed in scintillation vials containing about 10 ml of scintillation fluid (Ready Protein+, Beckman, Fullerton, Calif.). Radioactivity trapped on the filters was determined by liquid scintillation spectrometry. Nonspecific binding was determined using 1 μM atropine. […] DeLean, A. et al. Am.

[1] = test system: psychiatric patients suffering from schizophrenia; conditions: cited from earlier work

Compound: N#CCSc1nsnc1C1CN2CCC1CC2.O=C(O)C(=O)O (centres unmarked) [Compound 103, 3-(3-Cyanomethylthio-1,2,5-thiadiazol-4-yl)-1-azabicyclo[2.2.2]octane oxalate]
- Conditioned Avoidance % Avoidance Responses (Rats): 51%
- IC50 (muscarinic receptors): 2.7 nM

Compound: O=C(O)/C=C/C(=O)O.c1csc(CCCSc2nsnc2C2CN3CCC2CC3)c1 (centres unmarked) [Compound 104, 3-(3-(3-(2-Thienyl)propylthio)-1,2,5-thiadiazol-4-yl)-1-azabicyclo[2.2.2]octane fumarate]
- Conditioned Avoidance % Avoidance Responses (Rats): 24%
- IC50 (muscarinic receptors): 2.6 nM

Compound: Cn1nnnc1SCCCCSc1nsnc1C1CN2CCC1CC2 (centres unmarked) [Compound 106, oxalate]
- Conditioned Avoidance % Avoidance Responses (Rats): 55%
- IC50 (muscarinic receptors): 2.8 nM

Compound: Cc1nnc(SCCCCSc2nsnc2C2CN3CCC2CC3)s1 (centres unmarked) [Compound 107, oxalate]
- Conditioned Avoidance % Avoidance Responses (Rats): 52%
- IC50 (muscarinic receptors): 1 nM

Compound: CSc1nsnc1C1CN2CCC1CC2.O=C(O)C(=O)O (centres unmarked) [Compound 131, 3-(3-Methylthio-1,2,5-thiadiazol-4-yl)-1-azabicyclo[2.2.2]octane oxalate]
- Conditioned Avoidance % Avoidance Responses (Rats): 53%
- IC50 (muscarinic receptors): 2.8 nM

Compound: CC(C)CCCSc1nsnc1[C@H]1CN2CCC[C@H]1C2 [Compound 157, (+)-Exo-(5R,6R)-6-(3-isohexylthio-1,2,5-thiadiazol-4-yl)-1-azabicyclo[3.2.1]-octane (+) L-tartrate]
- Conditioned Avoidance % Avoidance Responses (Rats): 12%
- IC50 (muscarinic receptors): 10 nM

Compound: CC(C)CCCSc1nsnc1[C@@H]1CN2CCC[C@@H]1C2 [Compound 158, (-)-Exo-6-(3-isohexylthio-1,2,5-thiadiazol-4-yl)-1-azabicyclo[3.2.1]octane oxalate]
- Conditioned Avoidance % Avoidance Responses (Rats): 47%
- IC50 (muscarinic receptors): 10 nM

Compound: CN1CCN(C2=Nc3cc(Cl)ccc3Nc3ccccc32)CC1 [clozapine]
- agranulocytosis ([1]; reported for clinical use): cause agranulocytosis in some patients

Compound: Cc1cc2c(s1)Nc1ccc(F)cc1N=C2N1CCN(C)CC1 [flumezapine, 7-fluoro-2-methyl-10-(4-methyl-1-piperazinyl)-4H-thieno[2,3-b][1,5]-benzodiazepine]
- incidence of raised enzyme levels (CPK, SGOT, SGPT) in treated patients ([1]; 17 patients treated, clinical trial terminated): unacceptably high incidence of raised enzyme levels

Compound: O=C(CCCN1CCC(O)(c2ccc(Cl)cc2)CC1)c1ccc(F)cc1 [haloperidol]
- extra pyramidal symptoms ([1]; reported for clinical use): high incidence of extra pyramidal symptoms
